# Test results reported in US10675273B2, “Benzothiazole amphiphiles” (The Regents of the University of California, priority 2016, dated 2020).
# Key:
# [1] = test system: rat primary hippocampal neurons; conditions: previously reported study [40]; cited from earlier work
# [2] = Fluorescence emission spectra in water, octanol and aqueous liposome suspension (membrane partitioning); assay type: physicochemical; conditions: 50 μM compound, DiPhyPC liposomes
# Experimental: Measurement of Fluorescence Emission Spectra. The emission spectra of benzothiazoles in different environments was evaluated as previously described. Briefly, BAMs 1-3 and BTA-EG6 were diluted to a final concentration of 50 μM in deionized H2O, pure octanol, and a liposome suspension. The liposomes were prepared from a total lipid concentration of 10 mM of DiPhyPC in water by the gentle dehydration rehydration method followed by tip sonication. 200 μL of each sample was transferred to a cuvette (Hellma® Analytics, Quartz […]® (QS), 10 mm) and the fluorescence emission spectrum was measured in a PTI spectrofluorometer (0.5 nm step size) in water, octanol and an aqueous liposome suspension for BAMs 1-3 and BTA-EG6. Maximal excitation and emission values (λmax) for all compounds were as follows: BTA-EG6 (Ex/Em 355/420 nm), BAM1-EG6 (Ex/Em 355/420 nm), BAM2-EG6, (Ex/Em 365/428 nm), and BAM3-EG6 (Ex/Em 335/398 nm). Each experiment was repeated at least three separate times and error bars denote standard deviation from the mean. Data was processed using ORIGIN® 7.0 (MicroCal Software, Inc., Northampton, Mass.).
# [3] = test system: SH-SY5Y human neuroblastoma cells; assay: MTT cell viability assay; assay type: cell-based; conditions: 24 h exposure, read-out: IC50 of toxicity
# Experimental: Measurement of Cell Viability in the Presence of BAMs 1-3 and BTA-EG6. An MTT cell viability assay was performed as previously described. Briefly, SH-SY5Y cells were plated in a 96 well plate at a density of 50,000 cells/well in 100 μL of 1:1 Eagle's Minimum Essential Medium (EMEM) and Ham's F12, supplemented with 10% Fetal Bovine Serum (FBS). Cells were allowed to adhere overnight (37° C., 5% CO2) before dosing with 100 μL of various samples solutions of either BTA-EG6 or BAMs 1-3 with final concentrations (0-250 Cells were exposed to these solutions for 24 h at 37° C., 5% CO2. An MTT cell viability kit (ATCC, Product No: 30-1010K) was then used to determine cell viability. Briefly, 20 μL of the provided MTT reagent was added per well and cells were placed in the incubator for 3 h. The insoluble intracellular purple formazan was then dissolved by the addition of 100 μL of detergent reagent provided and let solubilize overnight at room temperature. The cell viability was determined by measuring the absorbance at 570 nm using a SPECTRAMAX® 190 microplate reader (Molecular Devices). All results are presented as percent reduction of MTT relative to untreated cells (100% viability), and all wells were blanked with absorbance values from the wells containing media, MTT reagent and detergent only.
# RasGRF1 = assay: Western blot analysis of RasGRF1 expression; assay type: cell-based, human; conditions: differentiated SH-SY5Y cells; for increase in RasGRF1 expression compared to untreated cells: 5 μM, 24 h, normalized to β-tubulin
# Experimental: Western Blot Analysis of Ras-GRF1 Expression in SH-SY5Y Cells Exposed to BAMs 1-3 or BTA-EG6. Differentiation of SH-SY5Y cells was performed according to a previously described procedure. Briefly, cells were differentiated for 8 days by the addition of 10 μM all-trans-retinoic acid (RA) in the cell culture medium (1:1 EMEM and Ham's F12 supplemented with 10% FBS). Media with RA was changed every 2 days. After 8 days, the media was removed and new, RA-free media containing the sample solutions was added. Cells were exposed to solutions containing a final concentration of the BTA-E6 and BAMs (0, 1, or 5 μM) for 24 hours at 37° C. Cells were than lysed with NP-40 buffer with protease inhibitor (Roche, ref #05892791001) and protein concentration was determined by BCA assay (Pierce BCA Assay Kit, #23225). Proteins were separated by SDS-PAGE (NUPAGE® 4-12% Bis-Tris gel, NUPAGE® MES SDS running buffer) followed by transfer onto nitrocellulose membrane (NOVEX®, LC2000). Membranes were blocked with 3% BSA in Tris-Buffered Saline with Tween 20 (TBST) for 1 h followed by incubation with primary antibodies in 3% BSA/TBST [mouse anti-RasGRF1 (BD 610149) and mouse anti-tubulin-β (Thermo MS1226-P)] overnight at 4° C. with shaking. Membranes were then washed with TBST (3×10 min) and then incubated with a TRITC labeled goat anti-mouse antibody (JAX 115-025-003) for 1 h at RT with shaking. After 1 h, the membranes were washed with TBST (6×5 min) and the proteins were visualized using a Typhoon 8600 variable mode imager (GE Healthcare). The density of each band was then quantified using ImageJ software as a percentage of control following normalization to β-tubulin.
# [4] = test system: rat primary hippocampal neurons; assay: Rescue of Aβ-induced spine loss; assay type: cell-based; conditions: 1 μM Aβ (1-42) plus 1 or 5 μM compound, 3 days
# [5] = test system: rat primary hippocampal neurons; assay: Dendritic spine density and morphology in primary hippocampal neurons; assay type: cell-based; conditions: 24 h exposure, versus vehicle control (0.1% DMSO)
# Experimental: Neuronal Cultures. Rat dissociated hippocampal neurons from postnatal day 1 were plated at a density of 45,000 cells/cm^2 onto poly-D-lysine-coated coverslips. Neurons were maintained in B27 supplemented Neurobasal media (Invitrogen) until days in vitro (DIV) 18-23 as previously described.
# Neuronal Treatments. For all neuronal treatments the following general protocol was followed: Briefly, 18-23 DIV rat dissociated hippocampal neurons were dosed with various concentrations (0-50 μM final concentration) of BAMs 1-3 or BTA-EGx (with 0.1% final DMSO concentration) for various times (24-72 h depending on the experiment). After dosing and at the desired time point, the media was removed and cells were rinsed with PBS-MC (phosphate-buffered saline, 1 mM MgCl2 and 0.1 mM CaCl2). Following rinsing, cells were fixed with 4% paraformaldehyde (PFA)/sucrose in PBS for 10 min at RT. […]
# Confocal Microscopy and Dendritic Spine Analysis. […] Imaged dendrites were straightened using ImageJ, and spine density was the number of manually counted spines divided by dendrite segment length. The analyzer was blind to treatment and statistical significance was determined between experimental conditions by either unpaired t tests (two groups) or by ANOVA and indicated post hoc multiple-comparison test (>2 experimental conditions).
# [6] = test system: human iPSC-derived neurons; assay: Spine density of PSD95 puncta in 3-month differentiated NSC; assay type: cell-based; conditions: 5 μM, control DMSO (0.1%)
# Experimental: FIG. 10. Quantification of spine density of PSD95 puncta from 3-month differentiated NSC treated with compound or vehicle control The figure depicts neuron micrographs with staining for MAP2, PSD95 and composite under control and compound administration conditions. “Compound” refers to BAM3-EG6 (5 μM), as depicted in FIG. 1. “Control” refers to DMSO (0.1%). MAP2 is a marker for dendrites, and PSD95 is a marker for post-synaptic features. A histogram (below) depicts normalized PSD95 puncta under control and compound administration conditions. It is observed that […] increases spine density by about 50% compared to control in human iPSC-derived neurons.
# FIG. 10 depicts quantification of spine density of PSD95 puncta from 3-month differentiated NSC treated with compound or vehicle control. It is observed that BTA-EG4 analog (e.g., those depicted in FIG. 1) increases spine density by about 50% compared to control in human iPSC-derived neurons.
# [7] = previously reported [18,19], cited from earlier work
smiles,measurement,setting,value
C[C@]12CC[C@@H]3c4ccc(O)cc4CC[C@H]3[C@@H]1CC[C@@H]2O [17β-estradiol],time required to induce maximal increase in spine density,[1],96 h
Cc1ccc2nc(-c3ccc(NCCOCCOCCOCCOCCOCCO)cc3)sc2c1 [BTA-EG6],"change of emission max (λmax) in aqueous liposome suspension from water, relative to λmax in pure octanol",[2],50%
same,IC50,[3],90 µM
same,increase in RasGRF1 expression compared to untreated cells,RasGRF1,approximately 20%
same,net increase in dendritic spine density compared to control,[4],~20%
same,spine density higher than in cells treated with Aβ (1-42) alone,[4],~50%
Cc1ccc2nc(-c3ccc(NCCOCCOCCOCCO)cc3)sc2c1 [BTA-EG4],increase in RasGRF1 expression compared to untreated cells,RasGRF1,20%
same,effect on RasGRF1 expression levels (in words),RasGRF1; 1 or 5 μM / increasing concentrations,dose-dependent increase in RasGRF1 levels
same,effect on dendritic spine density (in words),[5],observed increase in dendritic spine density over the vehicle control
same,increase in spine density (PSD95 puncta) compared to control,[6],about 50%
same,dendritic spine density in vivo,[7]; mice,phenotypic increase in dendritic spine density
same,memory and learning in cognitive performance tests,[7]; wild-type mice and mouse model for AD,capability to improve memory and learning
"OCCOCCOCCOCCOCCOCCSc1ccc(-c2nc3ccccc3s2)cc1 [BAM3-EG6, 17-((4-(benzo[d]thiazol-2-yl)phenyl)thio)-3,6,9,12,15-pentaoxaheptadecan-1-ol]",increase in RasGRF1 expression compared to untreated cells,RasGRF1,70%
